The target in assay [1] is T1, CTSK (Homo sapiens, UniProt P43235).
T1 sequence (P43235 115-329): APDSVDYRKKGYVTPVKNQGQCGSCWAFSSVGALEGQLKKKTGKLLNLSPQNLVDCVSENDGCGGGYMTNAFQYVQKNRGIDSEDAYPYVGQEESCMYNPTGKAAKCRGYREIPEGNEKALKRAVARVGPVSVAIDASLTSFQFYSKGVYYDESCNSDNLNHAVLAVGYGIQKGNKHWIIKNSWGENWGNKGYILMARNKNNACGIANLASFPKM
In words: In vitro kinetic evaluation of cathepsin inhibition, fluorescent substrate Z-FR-AMC. The class given is biochemical. The following applies: for mode of inhibition: CTSK. The text has this:
(§1) used for TLC. Phosphate Buffer Saline (PBS) was purchased from Biological Industries (pH = […]
(§2) 7.4) and was used as a buffer system in all experiments if not indicated otherwise. […]
Recombinant human CTSB, CTSK, CTSL, and CTSS were supplied by B. Turk (J.
Stefan Institute).[1] […]
Fluorescent gels were scanned by a Typhoon FLA 9500 flatbed laser scanner (GE Healthcare […]
Bio-Sciences AB, Uppsala, Sweden). BioRad ChemiDox XRS+ was used for western blot […]
analysis. Olympus FV10i inverted microscope (Tokyo,Japan) with Fluoview software or Zeiss […]
Confocal LSM 980 with Airyscan (Germany) with Zen software were used for confocal […]
(§3) In vitro kinetic evaluation of labeling recombinant cathepsins:
(§4) Reactions were monitored for 30 min at 37° C in 96-well black flat-bottom microplates […]
(Greiner, Germany) using Tecan […] M1000 pro plate reader (Tecan, Switzerland), […]
(§5) substrates Z-RR-AMC (CTSL) or Z-FR-AMC (CTSS, CTSB and CTSK), and excitation and […]
emission wavelengths of 370 and 460 nm, respectively. Cathepsin concentrations in the assay were 0.4 nM (CTSK) or 5 nM (CTSS, CTSB, and CTSL). The buffer was 100 mM Na2HPO4/NaH2PO4, 50 mM NaCl, 5 mM DTT, 0,1% Peg-6000, pH 6. For irreversible inhibitors, reaction data were fitted to the one-phase association formula in GraphPad Prism 9 software: Y=Y0 + (Plateau-Y0)*(1-exp(-K*X)) where in this case Y0 and Y represent fluorescence signal at times 0 and t, respectively, K represent the observed reaction rate kobs and X the inhibitor concentration. Inactivation rates at each inhibitor concentration were […]
maximal rate of inactivation (kinact) was obtained as the asymptote from equation […]
for each X, and Kiapp is the apparent inhibition constant. Ki values were calculated from IC50 or from Kiapp using formulas Ki = Kiapp / (1 + Km/S) and IC50 = E0/2 + Kiapp, where Km stands for Michalis-Menten constant, S for substrate concentration and E0 for cathepsin concentration.
(§6) The highest inhibitor concentrations in the assay were 50 µM. Measurements were performed in several independent duplicates. Average values are presented with standard deviations. […]

The target in assay [2] is CTSB (Homo sapiens, UniProt P07858). Described as above. Format: biochemical. The following applies: for mode of inhibition: CTSB; for Ki: CTSB 5 nM, pH 6, 37 °C. How it is done: as §1, §2
Recombinant human CTSB, CTSK, CTSL, and CTSS were supplied by B. Turk (J. […]
as §3, §4
(Greiner, Germany) using Tecan INFINITE M1000 pro plate reader (Tecan, Switzerland), […]
as §5
emission wavelengths of 370 and 460 nm, respectively. Cathepsin concentrations in the assay were 0.4 nM (CTSK) or 5 nM (CTSS, CTSB, and CTSL). The buffer was 100 mM Na2HPO4/NaH2PO4, 50 mM NaCl, 5 mM DTT, 0,1% Peg-6000, pH 6. For irreversible inhibitors, reaction data were fitted to the one-phase association formula in GraphPad Prism 9 software: Y=Y0 + (Plateau-Y0)*(1-exp(-K*X)) where in this case Y0 and Y represent fluorescence signal at times 0 and t, respectively, K represent the observed reaction rate kobs and X the inhibitor concentration. Inactivation rates at each inhibitor concentration were obtained by subtracting the inactivation observed in the control sample: kobs – kctrl. The maximal rate of inactivation (kinact) was obtained as the asymptote from equation Y = kinact*X/(Kiapp + X) where X is inhibitor concentration, Y is the observed inactivation rate for each X, and Kiapp is the apparent inhibition constant. Ki values were calculated from IC50 or from Kiapp using formulas Ki = Kiapp / (1 + Km/S) and IC50 = E0/2 + Kiapp, where Km stands for Michalis-Menten constant, S for substrate concentration and E0 for cathepsin concentration.
as §6
µM) were pretreated with different concentrations of probes (GD32, GD36, GD37, or GD42)

For `C#CCNC(=O)[C@H](CC(C)C)N[C@@H](c1ccc(-c2ccc(S(=O)(=O)CCNC(=O)CCCCC[N+]3=C(/C=C/C=C/C=C4/N(C)c5ccc(S(=O)(=O)O)cc5C4(C)C)C(C)(C)c4cc(S(=O)(=O)O)ccc43)cc2)cc1)C(F)(F)F` [GD32], the mode of inhibition result in assay [1] is “Irreversible”. Moreover, in assay [1] (CTSK 0.4 nM, pH 6, 37 °C), the Ki – broadly, a measure of affinity in units of concentration, obtained from inhibition or displacement – was found to be 3.6 nM; the kinact (usually the maximal first-order rate at which the target is inactivated) came to 0.0007 ± 0.0001 s⁻¹; the kinact/Ki is recorded as 26 ± 14 × 10^4 M^−1sec^−1. Further, in assay [2], the mode of inhibition entry was “Reversible” and the affinity corresponds to a Ki of 9400 nM.

As for `CC(C)C[C@H](N[C@@H](c1ccc(-c2ccc(S(=O)(=O)CCNC(=O)CCCCC[N+]3=C(/C=C/C=C/C=C4/N(C)c5ccc(S(=O)(=O)O)cc5C4(C)C)C(C)(C)c4cc(S(=O)(=O)O)ccc43)cc2)cc1)C(F)(F)F)C(=O)NC1(C#N)CC1` [GD37], the mode of inhibition result in assay [1] was “Reversible [Tight binding]”. In addition, the 50% inhibitory concentration (IC50) (in general, the concentration needed to halve the response being measured) in assay [1] (CTSK 0.4 nM, tight binding) was determined as 0.4 nM. In assay [2], the mode of inhibition entry was “Reversible” and the affinity, expressed as Ki, was 5900 nM.

Source of the values: PMC11481179, “Development and Application of Reversible and Irreversible Covalent Probes for Human and Mouse Cathepsin‐K Activity Detection, Revealing Nuclear Activity” (Advanced Science, 2024).
